From paper PMC3889317 (Diabetes Therapy, 2013)

Experiment: Plasma pharmacokinetics
Conditions: during 5 days of dosing

N#C[C@@H]1C[C@@H]2C[C@@H]2N1C(=O)[C@@H](N)C12CC3CC(O)(CC(O)(C3)C1)C2 [5-OH-Saxagliptin, 5-hydroxy-saxagliptin]
Plasma concentrations appeared to reach steady state by: Day 5
